Data as given in US4192896A, “Method of using dialkylphenols in the treatment of mycoplasma diseases” (priority 1979, dated 1980).

Key:
M. pneumoniae [1] = assay: Relative activity of hamster tracheal explants infected with M. pneumoniae; assay type: cell-based; conditions: culture H; 2,4 DMP added at 72 hours
Protocol: (§1) Adult golden hamsters (approximately 140 g. male and female) were used as the tissue source. Animals appearing to be disease-free were selected. Tracheas were removed aseptically and sliced into rings. The rings were rinsed and then transfered into sterile Petri dishes containing a shallow layer of minimal essential medium (MEM, with glutamine, NaHCO3, 10% horse serum and 500 units of penicillin G/ml). These organ cultures were incubated for 24 hours at 36° C. in 5% carbon dioxide and then scored for "relative activity" (RA), a measure of explant viability. "Relative Activity" (0 to 300) is the product of the percentage of the epithelial layer which is intact (0 to 100) and the relative vigor of ciliary beating (0 to 3).
The trachea rings were infected with M. pneumonia, strain PI 1428 (originally obtained from Dr. Robert Chanock, National Institutes of Health, Bethesda, Md.) which was used in the 10th to 12th passage and was grown on G-199 medium. Tracheal explants were infected with logarithmically growing cells using methods described by Gabridge, et al. Except where otherwise noted, groups of from 3 to 6 rings were preincubated for one hour in MEM with or without an appropriate amount of 2,4-dimethylphenol prior to the addition of mycoplasmas. Following exposure to M. pneumoniae for two hours, the rings were rinsed twice in phosphate buffered saline and then placed in a sterile Petri dish containing MEM and, where indicated, the required amount of 2,4-dimethylphenol or 2,4-DMP as used herein. Cultures were incubated at 36° in 5% carbon dioxide and scored daily for RA.
Infection Studies: M. pneumoniae attaches to the surface (as used herein the surface refers to in luminal epithelial lining) of the tracheal tissue within an hour or two following exposure. Decreases in the vigor of ciliary activity and loss of epithelial cells are evident within 24 to 48 hours post-infection. In most cases, little or no ciliary activity remains by the sixth or seventh day.
Time Course: In the studies reported thus far, tracheal explants were pretreated with 2,4-DMP for one hour before exposure to M. pneumoniae. Some insight into the nature, that is, the site or mode of action, of this protective phenomenon may be gained by altering the time at which 2,4-DMP is added to the culture media.

M. pneumoniae [2] = assay: Growth of logarithmically growing cultures of M. pneumoniae in liquid culture with 2,4-DMP (CFU/ml); assay type: cell-based, Mycoplasma pneumoniae, strain PI 1428
[3] = tested on: uninfected hamster tracheal explants; assay: Relative activity (explant viability: epithelial integrity x ciliary vigor) of uninfected hamster tracheal explants exposed to 2,4-DMP (toxicity); assay type: cell-based, golden hamster; conditions: for Relative activity following days of incubation with 2,4-DMP: uninfected explants, scale 0 to 300
Protocol: as §1
Before undertaking further studies the determination of the toxicity of 2,4-DMP toward hamster tracheal explants and Mycoplasma pneumoniae is necessary.

For Cc1ccc(O)c(C)c1 [2,4-DMP, 2,4-dimethylphenol], the “Relative Activity 7 Days Following Infection With M. Pneumoniae” value (M. pneumoniae [1]) was 92 ± 15, the “CFU/ml following days of culture” value (M. pneumoniae [2]; 10^-3 moles/liter, day 0) was 2 × 10^4 CFU/ml and the “CFU/ml following days of culture” value (M. pneumoniae [2]; 10^-3 moles/liter, day 1) was 5 × 10^4 CFU/ml. The “CFU/ml following days of culture” value (M. pneumoniae [2]; 10^-3 moles/liter, day 2) was 6.3 × 10^4 CFU/ml, the “CFU/ml following days of culture” value (M. pneumoniae [2]; 10^-3 moles/liter, day 3) was 6.5 × 10^4 CFU/ml and the “CFU/ml following days of culture” value (M. pneumoniae [2]; 10^-3 moles/liter, day 4) was 6.7 × 10^4 CFU/ml. For the same compound, the “CFU/ml following days of culture” value (M. pneumoniae [2]; 10^-3 moles/liter, day 5) was 4.1 × 10^4 CFU/ml, the “CFU/ml following days of culture” value (M. pneumoniae [2]; 10^-3 moles/liter, day 6) was 3.3 × 10^4 CFU/ml and the “CFU/ml following days of culture” value (M. pneumoniae [2]; 10^-3 moles/liter, day 7) was 1.5 × 10^4 CFU/ml. The “CFU/ml following days of culture” value (M. pneumoniae [2]; 10^-5 moles/liter, day 0) was 2 × 10^4 CFU/ml, the “CFU/ml following days of culture” value (M. pneumoniae [2]; 10^-5 moles/liter, day 1) was 1.2 × 10^5 CFU/ml and the “CFU/ml following days of culture” value (M. pneumoniae [2]; 10^-5 moles/liter, day 2) was 7.5 × 10^6 CFU/ml. For the same compound, the “CFU/ml following days of culture” value (M. pneumoniae [2]; 10^-5 moles/liter, day 3) was 2.5 × 10^7 CFU/ml, the “CFU/ml following days of culture” value (M. pneumoniae [2]; 10^-5 moles/liter, day 4) was 6.0 × 10^7 CFU/ml and the “CFU/ml following days of culture” value (M. pneumoniae [2]; 10^-5 moles/liter, day 6) was 1.5 × 10^7 CFU/ml. For the same compound, the “CFU/ml following days of culture” value (M. pneumoniae [2]; 10^-5 moles/liter, day 7) was 4.3 × 10^6 CFU/ml, the “CFU/ml following days of culture” value (M. pneumoniae [2]; 10^-8 moles/liter, day 0) was 2 × 10^4 CFU/ml and the “CFU/ml following days of culture” value (M. pneumoniae [2]; 10^-8 moles/liter, day 1) was 1.5 × 10^5 CFU/ml. The “CFU/ml following days of culture” value (M. pneumoniae [2]; 10^-8 moles/liter, day 2) was 7.2 × 10^6 CFU/ml, the “CFU/ml following days of culture” value (M. pneumoniae [2]; 10^-8 moles/liter, day 3) was 2.4 × 10^7 CFU/ml and the “CFU/ml following days of culture” value (M. pneumoniae [2]; 10^-8 moles/liter, day 4) was 6.3 × 10^7 CFU/ml. For the same compound, the “CFU/ml following days of culture” value (M. pneumoniae [2]; 10^-8 moles/liter, day 5) was 5.2 × 10^7 CFU/ml, the “CFU/ml following days of culture” value (M. pneumoniae [2]; 10^-8 moles/liter, day 6) was 1.1 × 10^7 CFU/ml and the “CFU/ml following days of culture” value (M. pneumoniae [2]; 10^-8 moles/liter, day 7) was 4.2 × 10^6 CFU/ml. For the same compound, the “effect on mycoplasmal growth” value (M. pneumoniae [2]; higher concentrations (10^-3 M)) was “inhibit mycoplasmal growth”, the “effect on growth of the organism” value (M. pneumoniae [2]; lower amounts (10^-5 M)) was “little or no effect on the growth of the organism” and the “reductions in RAs of uninfected explants” value ([3]; 10^-3 and 10^-4 M) was “Significant reductions in RAs”. For the same compound, the “overt cytotoxic effects in uninfected rings” value ([3]; 10^-5 M or less) was “no overt cytotoxic effects”, the “Relative activity following days of incubation with 2,4-DMP” value (“Relative activity following days” for short) ([3]; 10^-3 moles/liter, day 1) was 210 ± 19 and the “Relative activity following days” value ([3]; 10^-3 moles/liter, day 2) was 155 ± 12. For the same compound, the “Relative activity following days” value ([3]; 10^-3 moles/liter, day 3) was 105 ± 16, the “Relative activity following days” value ([3]; 10^-3 moles/liter, day 4) was 75 ± 16 and the “Relative activity following days” value ([3]; 10^-3 moles/liter, day 5) was 55 ± 12. The “Relative activity following days” value ([3]; 10^-3 moles/liter, day 6) was 50 ± 16, the “Relative activity following days” value ([3]; 10^-3 moles/liter, day 7) was 50 ±16 and the “Relative activity following days” value ([3]; 10^-4 moles/liter, day 1) was 255 ± 16. The “Relative activity following days” value ([3]; 10^-4 moles/liter, day 2) was 240 ± 33, the “Relative activity following days” value ([3]; 10^-4 moles/liter, day 3) was 200 ± 49 and the “Relative activity following days” value ([3]; 10^-4 moles/liter, day 4) was 160 ± 45. For the same compound, the “Relative activity following days” value ([3]; 10^-4 moles/liter, day 5) was 150 ± 27, the “Relative activity following days” value ([3]; 10^-4 moles/liter, day 6) was 140 ± 24 and the “Relative activity following days” value ([3]; 10^-4 moles/liter, day 7) was 135 ± 16. The “Relative activity following days” value ([3]; 10^-5 moles/liter, day 1) was 265 ± 12, the “Relative activity following days” value ([3]; 10^-5 moles/liter, day 2) was 270 ± 0 and the “Relative activity following days” value ([3]; 10^-5 moles/liter, day 3) was 264 ± 13. For the same compound, the “Relative activity following days” value ([3]; 10^-5 moles/liter, day 4) was 270 ± 0, the “Relative activity following days” value ([3]; 10^-5 moles/liter, day 5) was 264 ± 13 and the “Relative activity following days” value ([3]; 10^-5 moles/liter, day 6) was 258 ± 16. For the same compound, the “Relative activity following days” value ([3]; 10^-5 moles/liter, day 7) was 252 ± 16.
